Measured values: patent publication US20150148405A1, “Expression Construct for a Lin28-Resistant Let-7 Precursor MicroRNA” (THE JOHNS HOPKINS UNIVERSITY, priority 2012, published 2015)
Numbered stars: 1 amine (or outer) side, 2 acyl side, 3 side chain; on linkers, the order of the positions; unused ones are H or OH. Bridge positions count the residues as written; N and C are the ends. Square brackets hold non-standard residues; d marks the D form. Peptide text beside a SMILES is read from it. I, II: the chains in the order shown. Actinocin(9to1) = Cc1c2oc3c(C)ccc(C(=O)[*:1])c3nc-2c(C(=O)[*:2])c(N)c1=O; NMeV = CN[C@H](C(=O)O)C(C)C; Sar = CNCC(=O)O

What was measured:
Assay type in all cases: cell-based, mouse
cultured neurons = experiment: 35S-labelling total protein synthesis; conditions: mock or BDNF 100 ng/mL 2 hours, Actinomycin-D
Protocol: Cultured neurons were pre-incubated in media containing reduced-serum and Actinomycin-D as previously described, followed by washing and incubation for 10 min with methionine- and cysteine-free DMEM (Mediatech, Inc.), and ^35S labeling in the same DMEM with the addition of ^355-methionine/cysteine (^35S Met/Cys EasyTag Mix, Perkin Elmer) to a final concentration of […]. Mock- or BDNF stimulation was for 2 hours. Cells were washed and lysed with lysis buffer (see immunoblotting). Lysates were centrifuged and collected supernatants subjected to Bradford assay. To assess newly synthesized proteins, 200-500 μg of lysates proteins were precipitated with 10% trichloroacetic acid (TCA) for 1 hour on ice in the presence of 0.5% deoxycholate (DOC) to remove interfering phenol red. After centrifugation, protein pellets were washed with ice-cold 95% ethanol, solubilized in denaturing buffer ([…] Tris pH 8.3, 5 mM EDTA, 0.05% SDS, 6M urea), and subjected to liquid scintillation counting (Econofluor, New England Nuclear, Inc.). ^35S Disintegration per minute (DPM) was used to quantitate protein synthesis after subtraction of background readings.

BDNF targets = experiment: Immunoblotting for BDNF target proteins with or without Actinomycin-D; conditions: Actinomycin-D 0.5 μg/mL added 10 min before stimulation
Protocol: […] Bath application of BDNF (100 ng/mL) was for designated periods (5 min-2 hours). The cultures were washed 3 times and harvested on ice with lysis buffer (50 mM Hepes, 150 mM NaCl, 10% Glycerol, 1 mM EDTA, 1% Triton-X-100, 0.2% SDS) plus freshly added protease inhibitor cocktail (Roche) and PMSF. Protein concentration was determined by Bradford Assay. If required, lysates were treated with Lambda Protein Phosphatase according to manufacturer's instructions (New England Biolabs P0753S). Equal amounts of lysate protein were resolved on SDS-PAGE gels, and electrotransferred to PVDF membrane. Membrane was blocked with 5% milk in Tris-buffered saline tween 20 (TBST) and probed with primary antibodies in 5% milk or BSA in TBST: GluR1 (Millipore AB1504), CaMKIIα (Zymed 13-7300), Homer2 (gift of P. Worley), KCC2 (Upstate 07-432), Kv1.1 (NeuroMab 73-007), β-tubulin (U. Iowa DSHB, clone E-7), GAPDH (gift of S. Snyder), GW182 (18033 gift of M. Fritzler or Abcam ab84403), Dcp1a (gift of J. Lykke-Andersen or NeuroMab clone3G4), phospho-ERK ½ (Sigma M 7802), Dicer (NeuroMab clone N167/7), TRBP (Abeam ab72110), Lin28a (Cell Signaling A177), Lin28b (gift of E. Moss or Cell Signaling 5422), Arc (SantaCruz 17839), mCherry (Clontech 632496), GFP (NeuroMab N86/8).

[1] = test system: hippocampal pyramidal neurons; experiment: Live cell imaging of P-body numbers (GFP-Dcp1a); conditions: 15 μM
Protocol: Dissociated hippocampal cultures were prepared from postnatal day 0 (P0) mice as previously described (Meffert et al., 2003). Knockdown was by lentiviral-mediated delivery of shRNA to cultures at multiplicity of infection of 5-10, 48 hr before imaging or 4-5 days for GW182. Cultures were preincubated 10-20 min and mock- or BDNF-stimulated (100 ng/mL BDNF) in the presence of Actinomycin-D (0.5 μg/mL), unless indicated otherwise.
Confocal images of hippocampal pyramidal neurons were acquired on either a Yokogawa spinning disk (Zeiss) at 37° C. (live cells), or a LSM5 Pascal system (fixed cells). Laser power and exposure time were adjusted to minimize photobleaching and avoid saturation. […]
Dissociated hippocampal cultures were prepared from postnatal day 0 (P0) mice as previously described (Meffert et al., 2003) and were maintained in Neurobasal A medium (Gibco, 10888) with B27 Supplement (Gibco 17504-44). […] For live cell imaging, confocal images of hippocampal pyramidal neurons (excitatory, determined by morphology) in 0.24-0.3 μm Z sections were acquired using a 40×, 1.3 NA, EC Plan Neofluoar (whole cells) or a 100×, 1.4 NA Plan Apochromat oil immersion objective (dendrites) on a Yokogawa spinning disk system (Cell Observer, Carl Zeiss) at 37° C. in Tyrodes buffer (in mM: 119 NaCl, 5 KCl, 2 CaCl2, 0.2 MgCl2, Glucose, 25 Hepes, 0.01 Glycine, pH 7.4). […]

Row | SMILES | total protein synthesis (35S incorporation) (cultured neurons) | BDNF-induced protein synthesis of BDNF targets (BDNF targets) | P-body numbers in neuronal soma and dendrites [1]
1 | CCn1cc(C(=O)O)c(=O)c2cc3c(cc21)OCO3 [oxolinic acid] | does not alter total cellular protein synthesis |  | 
2 | Cc1c2oc3c(C)ccc(C(=O)N[C@@H]4C(=O)N[C@H](C(C)C)C(=O)N5CCC[C@H]5C(=O)N(C)CC(=O)N(C)[C@@H](C(C)C)C(=O)O[C@@H]4C)c3nc-2c(C(=O)N[C@@H]2C(=O)N[C@H](C(C)C)C(=O)N3CCC[C@H]3C(=O)N(C)CC(=O)N(C)[C@@H](C(C)C)C(=O)O[C@@H]2C)c(N)c1=O [Actinomycin-D] (I: T[dV]P[Sar][NMeV] / II: T[dV]P[Sar][NMeV]; ester I:1-I:C, II:1-II:C; linker I:N-II:N via Actinocin(9to1)) |  | does not alter BDNF-induced protein synthesis | 
3 | CCn1cc(C(=O)O)c(=O)c2cc(F)c(N3CCNCC3)nc21 [Enoxacin, enoxacin] | did not alter basal or BDNF-induced total protein synthesis |  | rapidly and robustly increased P-body numbers
